Assay results as given in article PMC4175000 (Journal of Medicinal Chemistry, 2014).
Values belong to the molecule of their own block, whether it stands above or below them.

Tests used:
[1] = target: hM3 (Homo sapiens, UniProt P20309); experiment: muscarinic selectivity calcium mobilization, hM3; format: cell-based; conditions: hM5 versus hM3 PAM potency
[2] = target: T1, hM5 receptor (Homo sapiens, UniProt P08912); experiment: ACh CRC fold shift, calcium mobilization; format: cell-based; conditions: compound at 10 μM; leftward shift in ACh potency at hM5; average ± SEM, n = 3–4
T1 sequence (P08912 1-532): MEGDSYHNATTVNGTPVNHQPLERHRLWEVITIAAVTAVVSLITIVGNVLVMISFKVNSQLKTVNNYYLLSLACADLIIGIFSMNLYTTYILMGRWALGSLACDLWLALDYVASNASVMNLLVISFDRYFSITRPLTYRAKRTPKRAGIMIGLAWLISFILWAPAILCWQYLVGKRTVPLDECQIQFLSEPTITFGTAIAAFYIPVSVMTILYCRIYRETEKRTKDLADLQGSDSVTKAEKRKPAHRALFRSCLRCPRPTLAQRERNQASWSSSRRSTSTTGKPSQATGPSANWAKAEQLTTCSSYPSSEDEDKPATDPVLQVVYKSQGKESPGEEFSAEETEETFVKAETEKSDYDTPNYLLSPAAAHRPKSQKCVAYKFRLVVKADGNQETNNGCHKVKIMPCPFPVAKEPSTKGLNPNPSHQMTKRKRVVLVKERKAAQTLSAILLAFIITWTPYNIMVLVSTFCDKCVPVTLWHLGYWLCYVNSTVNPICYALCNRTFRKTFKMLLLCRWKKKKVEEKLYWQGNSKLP

[3] = target: T2, hM2 (Homo sapiens, UniProt P08172); experiment: muscarinic selectivity calcium mobilization, hM2/Gqi5; format: cell-based; conditions: CHO hM2/Gqi5
T2 sequence (P08172 1-466): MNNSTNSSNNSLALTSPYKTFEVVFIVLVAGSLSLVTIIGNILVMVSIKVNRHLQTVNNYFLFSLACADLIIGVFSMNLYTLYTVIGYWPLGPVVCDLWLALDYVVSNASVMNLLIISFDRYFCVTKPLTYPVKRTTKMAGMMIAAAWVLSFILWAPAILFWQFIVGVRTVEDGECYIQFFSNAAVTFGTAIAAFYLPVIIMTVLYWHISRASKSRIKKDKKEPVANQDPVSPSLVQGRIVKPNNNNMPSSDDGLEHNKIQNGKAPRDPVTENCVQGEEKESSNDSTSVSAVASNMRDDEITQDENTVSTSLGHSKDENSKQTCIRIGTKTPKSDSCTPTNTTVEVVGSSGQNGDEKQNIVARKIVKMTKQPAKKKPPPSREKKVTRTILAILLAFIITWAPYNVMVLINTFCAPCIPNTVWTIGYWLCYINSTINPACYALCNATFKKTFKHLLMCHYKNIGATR

[4] = hepatic microsomal intrinsic clearance, human; format: in vitro ADME
[5] = hepatic microsomal intrinsic clearance, rat; format: in vitro ADME
[6] = target: T3, hM1 (Homo sapiens, UniProt P11229); experiment: muscarinic selectivity calcium mobilization, hM1; format: cell-based; conditions: hM5 versus hM1 PAM potency
T3 sequence (P11229 1-460): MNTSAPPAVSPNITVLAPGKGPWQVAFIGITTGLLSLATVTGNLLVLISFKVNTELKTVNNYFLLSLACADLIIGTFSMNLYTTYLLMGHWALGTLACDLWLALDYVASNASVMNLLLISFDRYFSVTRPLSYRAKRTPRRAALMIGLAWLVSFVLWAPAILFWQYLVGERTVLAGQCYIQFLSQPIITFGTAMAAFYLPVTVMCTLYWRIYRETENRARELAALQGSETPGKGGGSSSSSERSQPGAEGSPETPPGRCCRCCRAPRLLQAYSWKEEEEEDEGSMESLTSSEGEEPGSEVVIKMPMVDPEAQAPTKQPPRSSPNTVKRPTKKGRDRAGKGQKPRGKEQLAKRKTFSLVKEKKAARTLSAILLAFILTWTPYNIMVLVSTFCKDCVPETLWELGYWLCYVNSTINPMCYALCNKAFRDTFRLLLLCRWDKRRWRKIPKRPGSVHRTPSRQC

[7] = target: T4, human M5 receptors (Homo sapiens, UniProt P08912); experiment: hM5 PAM calcium mobilization assay; format: cell-based; conditions: for improvement in hM5 PAM EC50 over the naked phenylsulfonamide: versus 6a
T4 sequence (P08912 1-532): T1 sequence (P08912 1-532)

[8] = target: T1, hM5 receptor; experiment: [3H]NMS competition binding, hM5 CHO membranes; conditions: 0.3 nM [3H]NMS
[9] = target: T5, hM4 (Homo sapiens, UniProt P08173); experiment: muscarinic selectivity calcium mobilization, hM4/Gqi5; format: cell-based; conditions: CHO hM4/Gqi5
T5 sequence (P08173 1-479): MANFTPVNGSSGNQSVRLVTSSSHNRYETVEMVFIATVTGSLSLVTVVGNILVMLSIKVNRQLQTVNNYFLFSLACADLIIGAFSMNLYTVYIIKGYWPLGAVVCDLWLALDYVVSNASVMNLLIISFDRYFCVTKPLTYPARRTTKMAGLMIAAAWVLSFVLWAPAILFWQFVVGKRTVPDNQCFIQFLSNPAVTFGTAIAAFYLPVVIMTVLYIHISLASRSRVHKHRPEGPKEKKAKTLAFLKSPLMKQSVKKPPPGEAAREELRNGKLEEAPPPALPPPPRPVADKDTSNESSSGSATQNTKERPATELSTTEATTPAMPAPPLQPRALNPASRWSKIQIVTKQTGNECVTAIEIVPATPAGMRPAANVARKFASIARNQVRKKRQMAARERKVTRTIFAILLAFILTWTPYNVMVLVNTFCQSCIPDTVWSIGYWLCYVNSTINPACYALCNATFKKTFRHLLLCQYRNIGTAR

[10] = in vitro metabolite identification; format: in vitro ADME

Sequence of hM3 (P20309 whole entry): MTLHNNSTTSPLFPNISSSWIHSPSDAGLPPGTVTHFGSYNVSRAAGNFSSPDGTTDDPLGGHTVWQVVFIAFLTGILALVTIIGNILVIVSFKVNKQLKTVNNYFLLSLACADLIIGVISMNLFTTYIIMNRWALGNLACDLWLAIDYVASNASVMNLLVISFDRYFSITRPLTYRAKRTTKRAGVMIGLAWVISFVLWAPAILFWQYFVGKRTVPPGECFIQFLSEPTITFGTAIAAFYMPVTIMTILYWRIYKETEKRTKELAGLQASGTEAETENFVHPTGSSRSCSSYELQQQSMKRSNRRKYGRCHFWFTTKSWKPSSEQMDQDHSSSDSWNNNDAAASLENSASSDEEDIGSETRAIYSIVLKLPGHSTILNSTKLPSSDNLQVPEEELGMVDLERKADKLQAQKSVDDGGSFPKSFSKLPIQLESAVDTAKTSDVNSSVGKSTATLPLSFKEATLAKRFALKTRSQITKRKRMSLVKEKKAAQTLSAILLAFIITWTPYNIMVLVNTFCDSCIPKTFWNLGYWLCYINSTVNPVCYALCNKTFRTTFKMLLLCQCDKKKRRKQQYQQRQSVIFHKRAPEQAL

Structure (SMILES): CCN(Cc1ccccc1C(F)(F)F)C(=O)C1CCN(S(=O)(=O)c2ccc3[nH]ncc3c2)CC1 [8n, 1-((1H-Indazol-5-yl)sulfonyl)-N-ethyl-N-(2-(trifluoromethyl)benzyl)piperidine-4-carboxamide]
selectivity over hM3 [1]: greater than 10 fold
ACh fold shift [2]: 7- to 12 fold
activity at hM2 (in words) [3]: no activity
hepatic microsomal intrinsic clearance CLint [4]: 540 mL min^–1 kg^–1
predicted hepatic clearance CLhep [4]: 20 mL min^–1 kg^–1
CLint scaled at 1 µM ([4]; liver microsomes, pH 7.4): 540 mL/min/kg
predicted CLhep (mL/min/kg) ([4]; well-stirred model from CLint, not corrected for fu plasma): human: 20 mL/min/kg
hepatic microsomal intrinsic clearance CLint ([5]; rat): 2600 mL min^–1 kg^–1
predicted hepatic clearance CLhep ([5]; rat): 68 mL min^–1 kg^–1
CLint scaled at 1 µM ([5]; rat, liver microsomes, pH 7.4): 2600 mL/min/kg
predicted CLhep (mL/min/kg) ([5]; rat, well-stirred model from CLint, not corrected for fu plasma): rat: 68 mL/min/kg
selectivity over hM1 [6]: greater than 10 fold
hM5 PAM potency relative to des-CF3 congener 6p ([7]; more potent): 8 fold
effect on [3H]NMS binding (in words) [8]: no inhibitory effect
activity at hM4 (in words) [9]: no activity

Structure (SMILES): CCN(Cc1ccccc1)C(=O)C1CCN(S(=O)(=O)c2ccc3[nH]ncc3c2)CC1 [6p]
improvement in hM5 PAM EC50 over the naked phenylsulfonamide [7]: approximately 3 fold

Structure (SMILES): CCN(Cc1ccccc1)C(=O)C1CCN(S(=O)(=O)c2ccc3occc3c2)CC1 [6o]
improvement in hM5 PAM EC50 over the naked phenylsulfonamide [7]: approximately 3 fold

Structure (SMILES): CCN(Cc1ccccc1)C(=O)C1CCN(S(=O)(=O)c2ccc3cn[nH]c3c2)CC1 [6q]
improvement in hM5 PAM EC50 over the naked phenylsulfonamide [7]: approximately 3 fold

Further lines, with some results ahead:

ACh fold shift [2]: 7- to 12 fold
improvement in hM5 potency relative to des-methyl analog 6b [7]: 3 fold
Structure (SMILES): CCN(C(=O)C1CCN(S(=O)(=O)c2ccc(OC)cc2)CC1)[C@H](C)c1ccccc1 [7b]

ACh fold shift [2]: 7- to 12 fold
Structure (SMILES): CCN(Cc1ccccc1C(F)(F)F)C(=O)C1CCN(S(=O)(=O)c2ccc3cn[nH]c3c2)CC1 [8j]

ACh fold shift [2]: 7- to 12 fold
Structure (SMILES): CCN(C(=O)C1CCN(S(=O)(=O)c2ccc3[nH]ncc3c2)CC1)[C@H](C)c1ccccc1 [7g]
primary site of metabolism [10]: N-ethyl moiety as the primary site of metabolism

activity at hM5 (in words) ([7]; PAM, calcium mobilization): complete absence of activity
Structure (SMILES): O=C(C1CCN(S(=O)(=O)c2ccc3[nH]ncc3c2)CC1)N(Cc1ccccc1C(F)(F)F)C1CC1 [9d]
change of intrinsic microsomal clearance (in words) ([5]; relative to the other analogs (rat CLint > 500)): reduce intrinsic microsomal clearance by an order of magnitude
